According to patent publication EP1660440B1, “ACYLOXYALKYL CARBAMATE PRODRUGS, METHODS OF SYNTHESIS AND USE” (priority 2003, dated 2005):
Read-outs that look alike come from different tables or passages of the source.

Experiments:
Pancreatin = Pancreatin stability; type: in vitro ADME, porcine; conditions: 1 % (w/v) pancreatin, 5 µM, pH 7.5, 37 °C, after 60 min
Method: Pancreatin Stability: Stability studies were conducted by incubating prodrug (5 µM) with 1 % (w/v) pancreatin (Sigma, P-1625, from porcine pancreas) in 0.025 M Tris buffer containing 0.5 M NaCl (pH 7.5) at 37 °C for 60 min. The reaction was stopped by addition of 2 volumes of methanol. After centrifugation at 14,000 rpm for 10 min, the supernatant was removed and analyzed by LC/MS/MS.

[1] = human, s9, 1 h, 2 µM
Method: (§1) The stabilities of prodrugs were evaluated in one or more in vitro systems using a variety of tissue preparations following methods known in the art. The chemical stability of prodrugs in aqueous buffers at pH's of 2.0, 7.4 and 8.0 were also measured. […] Each preparation was incubated with test compound at 37°C for one hour. Aliquots (50 µL) were removed at 0, 30, and 60 min and quenched with 0.1 % trifluoroacetic acid in acetonitrile.

[2] = human, plasma, 1 h, 2 µM
Method: as §1

[3] = human, s9, 1 h, 5 µM
Method: For stability studies, prodrug (5 µM) was incubated in Caco-2 homogenate S9 fraction (0.5 mg protein per mL) for 60 min at 37°C. Concentrations of intact prodrug and released baclofen were determined at zero time and 60 minutes using LC/MS/MS.

[4] = rat, plasma, 1 h, 2 µM
Method: as §1

[5] = rat, s9, 1 h, 2 µM
Method: as §1

[6] = aqueous buffer, 1 h
Method: as §1

| Compound | % of Baclofen Released (Pancreatin) [%] | % of Prodrug Remaining (Pancreatin) [%] | % of Baclofen Released [1] [%] | % of Prodrug Remaining [1] [%] | % of Baclofen Released [2] [%] | % of Prodrug Remaining [2] [%] | % of Baclofen Released [3] [%] | % of Prodrug Remaining [3] [%] | % of Baclofen Released [4] [%] | % of Prodrug Remaining [4] [%] | % of Baclofen Released [5] [%] | % of Prodrug Remaining [5] [%] | % of Baclofen Released ([6]; pH 2) [%] | % of Prodrug Remaining ([6]; pH 2) [%] | % of Baclofen Released ([6]; pH 7.4) [%] | % of Prodrug Remaining ([6]; pH 7.4) [%] | % of Baclofen Released ([6]; pH 8) [%] | % of Prodrug Remaining ([6]; pH 8) [%] |
| --- | --- | --- | --- | --- | --- | --- | --- | --- | --- | --- | --- | --- | --- | --- | --- | --- | --- | --- |
| CC(=O)OC(OC(=O)NC[C@H](CC(=O)[O-])c1ccc(Cl)cc1)C(C)C.[Na+] (stereo partly drawn) [(23), Sodium 4-[(1-Acetoxylsobutoxy)carbonylamino]1-(3R)-(4-chlorophenyl)-butanoate] | 24 | 82 | 105 | 4 | 3 | 96 | 87 | 15 | 93 | 11 | 107 | 3 | 0 | 107 | 1 | 89 | 2 | 90 |
| CC(C)C(=O)OC(OC(=O)NC[C@H](CC(=O)[O-])c1ccc(Cl)cc1)C(C)C.[Na+] (stereo partly drawn) [(25), Sodium 4-[(1-Isobutanoyloxyisobutoxy)carbonylamino]-(3R)-(4-chlorophenyl)-butanoate] | 84 | 22 | 91 | 4 | 4 | 93 | 95 | 2 | 96 | 5 | 98 | 1 | 0 | 101 | 0 | 100 | 0 | 100 |
| CC(OC(=O)NC[C@H](CC(=O)[O-])c1ccc(Cl)cc1)OC(=O)C(C)C.[Na+] (stereo partly drawn) [(33), Sodium 4-[(1-Isobutanoyloxyethoxy)carbonylamino]-(3R)-(4-chlorophenyl)-butanoate] | 52 | 46 | 101 | 3 | 4 | 96 | 95 | 3 | 30 | 73 | 101 | 4 | 0 | 100 | 0 | 72 | 0 | 101 |
| CC(C)C(=O)O[C@H](C)OC(=O)NC[C@H](CC(=O)[O-])c1ccc(Cl)cc1.[Na+] [(34), Sodium 4-{[(1S)-Isobutanoyloxyethoxy]-carbonylamino}-(3R)-(4-chlorophenyl) -butanoate] | 18 | 81 | 100 | 3 | 2 | 90 | 100 | 2 | 18 | 78 | 100 | 1 | 0 | 100 | 0 | 100 | 0 | 100 |
| O=C([O-])C[C@@H](CNC(=O)OCOC(=O)c1cccs1)c1ccc(Cl)cc1.[Na+] [(57), Sodium 4-[(2-Thienylcarbonyloxymethoxy)carbonylamino]-(3R)-(4-chlorophenyl)-butan oate] | 75 | 12 | 86 | 1 | 14 | 73 | 104 | 2 | 10 | 82 | 78 | 2 | 0 | 100 | 0 | 100 | 0 | 100 |
| CC(C)CC(=O)OCOC(=O)NC[C@H](CC(=O)[O-])c1ccc(Cl)cc1.[Na+] [(59), Sodium 4-[(3-Methylbutanoyloxymethoxy)carbonylamino]-(3R)-(4-chlorophenyl)-butano ate] | 50 | 46 | 82 | 1 | 11 | 77 | 104 | 3 | 85 | 2 | 85 | 2 | 0 | 103 | 1 | 103 | 2 | 97 |
| CC(C)C(=O)OC(OC(=O)NC[C@H](CC(=O)[O-])c1ccc(Cl)cc1)C1CCCCC1.[Na+] (stereo partly drawn) [(84), Sodium 4-[(1-Isobutanoyloxy-1-cyclohexylmethoxy)carbonylamino]-(3R)-(4-chlorophenyl)-butanoate] | 40 | 47 | 82 | 2 | 4 | 89 | 76 | 13 | 11 | 91 | 91 | 4 | 0 | 85 | 0 | 84 | 1 | 94 |
| CCCC(=O)OC(OC(=O)NC[C@H](CC(=O)[O-])c1ccc(Cl)cc1)C1CCCCC1.[Na+] (stereo partly drawn) [(85), Sodium 4-[(1-Butanoyloxy-1-cyclohexylmethoxy)carbonylamino]-(3R)-(4-chlorophenyl)-butanoate] | 64 | 15 | 84 | 2 | 4 | 95 | 82 | 4 | 12 | 82 | 91 | 2 | 0 | 82 | 0 | 92 | 0 | 93 |
| CCC[C@H](OC(=O)NC[C@H](CC(=O)[O-])c1ccc(Cl)cc1)OC(=O)C(C)C.[Na+] [(91), Sodium 4-{[(1S)-Isobutanoyloxybutoxy]carbonylamino}-(3R)-(4-chlorophenyl)-butanoate] | 78 | 11 | 78 | 1 | 2 | 83 | 107 | 6 | 10 | 80 | 70 | 22 | 0 | 100 | 0 | 97 | 1 | 94 |
| CC(C)C(=O)O[C@H](OC(=O)NC[C@H](CC(=O)[O-])c1ccc(Cl)cc1)C(C)C.[Na+] [(100), Sodium 4-{[(1R)-Isobutanoyloxyisobutoxy]carbonylamino}-(3R)-(4-chlorophenyl) -butanoate] | 27 | 68 | 83 | 1 | 3 | 89 | 90 | 7 | 64 | 9 | 85 | 3 | 0 | 101 | 0 | 98 | 0 | 95 |
